# Tests used:
# E. coli K1 strain UTI89 [1] = test: Secondary assay 2: T7 phage-mediated lysis assay; format: cell-based, Escherichia coli; settings: second round of synthetic analogues, n = 2; read-out: T7 phage IC50
# Description: D. Secondary Assay 2: Screening for Inhibitors of Bacterial Capsule Biogenesis—T7 Lysis Inhibition
# Purpose: This secondary assay measures the compound mechanistic specificity for inhibition of bacterial capsule formation and excludes inhibitors of phage replication using a different bacteriophage (T7). In this assay, an increase in phage-induced lysis correlates to a decrease in capsule formation.
# Purpose: This secondary assay measures the compound mechanistic specificity for inhibition of bacterial capsule formation using a different bacterial phage (T7). In this assay, an increase in phage-induced lysis correlates to a decrease in capsule formation.
# Assay Description: T7 phage-mediated lysis assay: This assay determined if the mechanism of action of the compound is inhibition of phage infectivity or replication. The T7 phage has a nearly identical genome to K1F, without encoding an endosialidase. Its cycle of replication is similar to that of K1F as well. However, T7 entry into E. coli is inhibited by K capsules. This secondary assay was conducted in the 96 well plate format. […] Compounds were added in quadruplicate to plates in a concentration dependent manner in the range of 100-0.39 μM, followed by addition of 100 μL of bacterial culture. 1% DMSO (final well concentration) was included. The plates were tape sealed and shaken vigorously for 1.5 hr. An initial OD600 reading was measured to identify compounds that cause growth retardation or bacterial killing in the absence of phage. Next, T7 phage (5 μL) was added to all of the test wells. The plates were resealed and shaken vigorously at 37° C., and measurements of OD600 for phage-mediated lysis were taken after 3 hr. True inhibitors of capsule yielded bacteria that were susceptible to T7 phage and lysed within 2 hr of the addition of phage. […] The positive control drug C7 (100 μM final well concentration) was used in this screen.
# T7 phage counter assay. This secondary assay was performed as previously described and was used to distinguish compounds with phage inhibitory effects from true polysaccharide capsule inhibitors. […] Thus, the presence of a capsule inhibits T7-mediated lysis. In this assay, an increase in phage-induced lysis correlates to a decrease in capsule formation. True inhibitors of capsule yielded bacteria that were susceptible to T7 phage and lysed within 2 hr of the addition of phage. […] The positive control molecule C7 (100 μM final well concentration) was used in this screen.
# E. coli K1 strain UTI89 [2] = test: microbe, parasite or virus in culture; settings: read-out: K1 phage IC50; second round of synthetic analogues, n = 3
# Description: The ability of the […] to bind to bacterial capsule, infect, and lyse E. coli UT189 was used as the primary assay to identify the effects of screened compounds on bacterial capsule formation. The phenotypic end-point assay measured the fluorescence generated by cellular processing of Alamar Blue as a direct indicator of cell viability. A total of […] compounds were screened using the primary assay. […] Hits were further evaluated using […] secondary assays for alternative measurement of compound-induced reduction in bacterial capsule formation (secondary assays 1 and 2) and specificity (secondary assays 3 and 4). Confirmed actives with an SI>5 were further investigated and subjected to chemical optimization, followed by secondary assay evaluation. Secondary assays more closely characterized the ability of the compounds to reduce bacterial capsule formation and can be used to examine the mechanism of action of the compounds. The combination of primary assay (to measure capsule reduction), counter assay (for general eukaryotic cell toxicity) and secondary assay (to measure reduction in capsule formation and specificity) were combined to allow a determination of probe efficacy, selectivity, and specificity.
# A. Primary Assay: Screening for Inhibitors of Bacterial Capsule Biogenesis.
# Primary assay: An end-point assay to measure the amount of K1 phage-induced bacterial cell lysis was employed to determine the compound effect on capsule biogenesis. K1 bacteriophage specifically binds the bacterial capsule during the initial stages of infection. Bacteria without capsule cannot be infected and lysed by the bacteriophage. […] A total of 338,740 compounds were screened at 100 μM in the primary screen Inhibition of phage lysis was calculated relative to the mean of the bacterial (positive) control on each microtiter plate. […] For calculation of S/B/Z value, and CV, the following formulae (in which SD stands for standard deviation) were used: S/B=mean signal/mean background; Z=1-3SD of sample+3SD of control mean of sample−mean of control; % CV=(SD mean signal/mean signal)×100.
# IC50 values were calculated using a 4 parameter Levenburg-Marquardt algorithm, with the maximum and minimum locked at 0 and 100 respectively.
# Primary assay: The primary assay was conducted in the 1,536 well plate format. Bacterial cultures of E. coli K1 strain UTI89 (cystitis isolate) and isogenic capsule mutant strains (as controls for phage infection) were grown and prepared at the screening center immediately prior to use. Overnight starting cultures of UTI89 were grown at 37° C., and inoculated into 1 liter of LB (starting OD600˜0.03), which was sufficient for screening 40 plates (including ˜10% waste) and ˜40,000 compounds as single points.
# Control wells contained UTI89 (wt K1) with 0.5% DMSO as a simulated positive control; UTI89 with 0.5% DMSO and tetracycline for a negative growth control; and media plus vehicle control. 50 mL of LB Broth was inoculated with stock 150 μL E. coli UT189 and grown overnight at 37° C. The next day, cultures were diluted 1:75 in 1 L of LB Broth containing 0.5% DMSO. 3 μL of this culture was added to each plate well, and plates were incubated, inverted, at 37° C. for 2 hr. The K1F bacteriophage stock was diluted 1:8 in LB Broth containing 0.5% DMSO, and 1.5 μL of diluted phage (or media only) was added to the pre-plated test compound wells and appropriate control wells. The plates were centrifuged briefly, and then were incubated, inverted, at 37° C. for an additional 2 hr. Afterward, Alamar Blue reagent (Invitrogen, #DAL1100) was diluted 1:2 with LB broth and 1 μL was added to each plate well.
# [3] = tested on: Bladder carcinoma 5637 cells; test: Cytotoxicity counterscreen, CellTiter Glo, 72 hr; format: cell-based, human
# Procedure: B. Counterscreen: Cytotoxicity Screening for Potential Inhibitors of Bacterial Capsule Biogenesis.
# Purpose: This cell-based assay measures the cytotoxicity of compounds in bladder carcinoma 5637 cells using luminescent cell viability assay readout.
# Cytotoxicity assay: The cytotoxicity assay was performed as described in Section 6: Appendix. Hit cytotoxicity and the 50% toxic concentration (CC50) was determined and compared to the IC50 to calculate the selectivity index.
# Assay Description: Cytotoxicity: Dose response testing (dose range=300-0.58 μM) established the hit cytotoxicity data. Compounds were plated in 384-well microplates in a stacked dose response format using the same doses used in the efficacy dose response. Bladder carcinoma 5637 cells were added to the compounds, and 72 hr later cell viability was measured using CellTiter Glo (38). Hit cytotoxicity and the 50% toxic concentration (TC50) was determined and compared to the IC50 to calculate the therapeutic index. Test compounds are serially diluted in a plate to plate matrix or stacked plate matrix. All 320 compounds in a source plate are diluted together resulting in a 10 point dose response dilution series. It is visualized as a serial dilution series proceeding vertically through a stack of plates with the high dose plate on top and the low dose plate on the bottom.
# Control Drug: Hyamine was used as a positive cytotoxic control. All wells contained 0.5% DMSO.
# Preparation of Bladder carcinoma 5637 cells: Cells are harvested and resuspended to 80,000 cells per ml in Complete DMEM/F12®.
# Endpoint Read: Following the three day incubation period, the assay plates were equilibrated to room temperature for 30 min and an equal volume (30 μL) of Cell Titer-Glo® reagent (Promega Inc.) is added to each well using a WellMate™ (Matrix, Hudson, N.H.) and plates are incubated for an additional 10 min at room temperature. At the end of the incubation, luminescence is measured using a Perkin Elmer Envision™ multi-label reader (PerkinElmer, Wellesley, Mass.) with an integration time of 0.1 s.
# Cytotoxicity. Testing was performed essentially as previously described. Concentration-response testing was performed over a range 0.58-300 μM in a […] well plate format. Bladder carcinoma 5637 cells (ATCC HTB-9) were added to the compounds, and 72 hrs later cell viability was measured using CellTiter Glo (Promega). The 50% toxic concentration (TC50) was determined and compared to the IC50 to calculate the therapeutic index. Hyamine was used as a positive cytotoxic control. All wells contained 0.5% DMSO.
Compound,IC50 (E. coli K1 strain UTI89 [1]) [µM],IC50 (E. coli K1 strain UTI89 [2]) [µM],IC50 [3] [µM]
O=C(O)c1sc(-c2ccc(OCC(F)(F)F)cc2)cc1NC(=O)c1c(F)cc(F)cc1F [compound 56643012],2.5 to 5,94.9,161
CCCc1ccc(-c2cc(NC(=O)c3ccc(Br)o3)c(C(=O)O)s2)cc1 [compound 56643013],< 0.625,1.43,46.4
O=C(O)c1sc(-c2ccc(OCCCC(F)(F)F)cc2)cc1NC(=O)c1c(F)cc(F)cc1F [compound 56643015],< 1.25,5.53,54.7
CCCc1ccc(-c2cc(NC(=O)c3c(F)cccc3F)c(C(=O)O)s2)cc1 [compound 56643016],< 0.625,2.63,54.9
CCOc1ccc(-c2cc(NC(=O)c3c(F)cccc3C(F)(F)F)c(C(=O)O)s2)cc1 [compound 56643017],< 5,52.6,62
CCCCOc1ccc(-c2cc(NC(=O)c3cc(Br)c(Br)o3)c(C(=O)O)s2)cc1 [compound 56643019],1.25 to 2.5,23.3,31.7
O=C(O)c1sc(-c2ccc(OCCC(F)(F)F)cc2)cc1NC(=O)c1c(F)cccc1F [compound 56643020],< 0.0156,0.84,68.4
O=C(Nc1cc(-c2ccc(OCCC(F)(F)F)cc2)sc1C(=O)O)c1ccc(Br)o1 [compound 56643022],< 0.625,0.84,41.7
CCCOc1ccc(-c2cc(NC(=O)c3c(F)cc(F)cc3F)c(C(=O)O)s2)cc1 [compound 56643023],< 0.625,8.06,85.6
O=C(O)c1sc(-c2ccc(OCCCC(F)(F)F)cc2)cc1NC(=O)c1c(F)cccc1F [compound 56643024],< 2.5,10.3,241
[N-]=[N+]=NCCOc1ccc(-c2cc(NC(=O)c3c(F)cccc3F)c(C(=O)O)s2)cc1 [compound 56643025],< 0.625,17.5,273

# — patent US9688653B2, “Ethoxyphenyl thienyl compounds and methods for the treatment of bacterial infections” (Duke University, priority 2013, dated 2017)
